Test results published in US4975531A, “Sakyomicin E and the derivatives thereof, a process for the preparation thereof and the use thereof” (Behringwerke Aktiengesellschaft, priority 1988, dated 1990).

Experiments:
L1210 cells = experiment: Proliferation test (MTT assay), L1210; assay type: cell-based, murine; settings: 72 hours
Protocol: (§1) The cytotoxic activity of the compounds according to the invention was measured in two different in vitro test systems.
(§2) 1. Proliferation test (MTT assay)
(§3) In this test system, the number of live or dead cells after incubation with the test substance for 3 days is measured by means of the NADP-dependent reduction of a colorless substrate to give a deep red-colored final product, which occurs only in live cells.
(§4) Control experiments contain merely growth medium in place of the test substance. Quadruplicate determinations were set up for each test substance and for the controls. After incubation for 65 hours, 50 μl of an MTT solution (2.5 mg/ml in phosphate buffered saline) are added. In the presence of live cells MTT is reduced to a dark-red insoluble formazan pigment. […] The insoluble pigment is dissolved by addition of 100 μl of DMSO, and the extinction of the solution produced in this way is subsequently measured for each well in a Multiscan photometer 340 CC from Flow at a wavelength of 492 nm.

A 549 cells = experiment: Proliferation test (MTT assay), A 549; assay type: cell-based, human; settings: A 549, MTT, 72 hours
Protocol: as §1, §2, §3, §4

HT 29 cells = experiment: Proliferation test (MTT assay), HT 29; assay type: cell-based, human; settings: HT 29, MTT, 72 hours
Protocol: as §1, §2, §3, §4

tumor cell colonies = experiment: Stem Cell Test (inhibition of tumor cell colony formation in soft agar); assay type: cell-based; settings: cell line not given; for IC50 Cont. incubation (colony formation in soft agar): continuous incubation
Protocol: as §1
This test system examines the ability of the test substance to inhibit the formation of tumor cell colonies in soft agar. The test was carried out by the method described by Hamburger and Salmon, with the modifications described below. Conditioned medium was replaced by McCoy 5A medium. […] The cells were incubated with various concentrations of the test substance at 37° C. for 1 hour. The cells were then washed twice with McCoy 5A medium and then plated out as the upper layer in a two-layer agar system in accordance with the Hamburger and Salmon method. Additional parallel experiments were carried out using a continuous incubation time, in which case various concentrations of the test substance were mixed with the upper agar layer before plating out the cells.
After this time, colonies with a diameter of (greater than) 60 μm were counted using an image analysis system (FAS II, Bausch and Lomb).
The IC50 for continuous and one-hour incubation was determined from the dose-effect plot (Tab. 2).

E. coli = experiment: antibacterial effect in vitro, agar plate diffusion test, E. coli; assay type: cell-based; settings: agar plate diffusion test (10 μl/test disk 6 mm in diameter)
Protocol: (§5) Examples of various organisms which emerge as sensitive to an inhibitory concentration of greater than 10 μg/ml are: E. coli, Staph. aureus, Strep. faecalis.

Staph. aureus = experiment: antibacterial effect in vitro, agar plate diffusion test, Staph. aureus; assay type: cell-based; settings: agar plate diffusion test (10 μl/test disk 6 mm in diameter)
Protocol: as §5

Strep. faecalis = experiment: antibacterial effect in vitro, agar plate diffusion test, Strep. faecalis; assay type: cell-based; settings: agar plate diffusion test (10 μl/test disk 6 mm in diameter)
Protocol: as §5

[1] = test system: Gram-positive and Gram-negative bacteria; experiment: antibacterial effect in vitro against Gram-positive and Gram-negative bacteria, agar plate diffusion test; assay type: cell-based
Protocol: as §5

[2] = test system: human and animal tumor cells; experiment: tumor-inhibiting effect in vitro; assay type: cell-based
solubility = assay type: physicochemical
stability = assay type: physicochemical

Substance	IC50 L1210 (concentration which just kills 50% of the cells) (L1210 cells) [µg/mL]	IC50 A 549 (concentration which just kills 50% of the cells) (A 549 cells) [µg/mL]	IC50 HT 29 (concentration which just kills 50% of the cells) (HT 29 cells) [µg/mL]	IC50 1 h incubation (colony formation in soft agar) (tumor cell colonies)	IC50 Cont. incubation (colony formation in soft agar) (tumor cell colonies) [µg/mL]	inhibitory concentration, E. coli (E. coli)	inhibitory concentration, Staph. aureus (Staph. aureus)	inhibitory concentration, Strep. faecalis (Strep. faecalis)	antibacterial effect against Gram-positive and Gram-negative bacteria [1]	tumor-inhibiting effect in vitro [2]	solubility in alkanes (solubility; alkanes)	solubility in ethyl acetate, methanol, acetone, DMSO and chloroform (solubility; ethyl acetate, methanol, acetone, DMSO and chloroform)	stability in solution (stability; in solution in the pH range from 3 to 9, especially from 5 to 8)	stability in the solid state (stability; solid state)
2,8,4'-tri-O-acetylsakyomicin E	0.29	0.37	0.11	above 1.0 μg/ml	0.30									
sakyomicin E	0.50	0.30	0.08	3.0 µg/mL	0.24	greater than 10 μg/ml	greater than 10 μg/ml	greater than 10 μg/ml	exhibits an antibacterial effect	tumor-inhibiting effect	insoluble or only very slightly soluble	readily soluble	stable	stable
